From publication PMC11547703, “Design, Synthesis, and Evaluation of Doxifluridine Derivatives as Nitroreductase-Responsive Anticancer Prodrugs” (Molecules, 2024) come the findings set out here.

T1 sequence (P38489 whole entry): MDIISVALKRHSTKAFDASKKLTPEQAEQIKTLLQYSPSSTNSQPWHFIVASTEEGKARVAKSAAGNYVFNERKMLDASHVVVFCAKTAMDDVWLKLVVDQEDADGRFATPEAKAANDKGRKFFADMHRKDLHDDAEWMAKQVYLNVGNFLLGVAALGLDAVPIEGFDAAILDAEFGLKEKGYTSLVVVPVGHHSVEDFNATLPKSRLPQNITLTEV

System in one data set: not listed separately
The experiment in a line: Stability of target compounds in phosphate-buffered saline (pH 6.5 and pH 7.4), HPLC. It is filed as physicochemical. The conditions noted are these: PBS pH 6.5 and 7.4, mouse and rat plasma (Figure S1). As for the experimental part: The stability of the target compounds was tested first, and excellent stability was essential for physiological function evaluation. Phosphate-buffered saline (PBS) of different pH values was used to evaluate the stability of the target compounds in a weakly acidic tumor microenvironment (pH 6.5) versus a weakly alkaline normal physiological environment (pH 7.4). […] The stability of the target compounds in mouse and rat plasma was excellent. The concentrations of all target compounds remained at >80% of the initial concentrations after 24 h, with the concentrations of compounds 1c, 2c, and 3c being 89%, 88%, and 83% in mouse plasma and 86%, 84%, and 81% in rat plasma, respectively (Figure 3c,d).
PBS (pH 7.4) was made with 137 mM NaCl, 2.7 mM KCl, 10 mM Na2HPO4, and 1.8 mM KH2PO4, while PBS (pH 6.5) was made with 24.6 mM Na2HPO4 and 175.4 mM NaH2PO4. The target compounds were dissolved into the different buffers (50 μM; 1% DMSO), and the mixtures were incubated at 37 °C. A 100-μL sample was transferred to a vial for HPLC analysis at 1, 2, 4, 8, 12, and 24 h. C57BL/6 mice and SD rat orbital whole blood was collected into anticoagulation tubes and centrifuged at 4000× g for 5 min at 4 °C to obtain plasma. The target compounds were dissolved into the plasma (50 μM; 1% DMSO) and incubated at 37 °C. Each sample (100 μL) was collected and precipitated using 100 μL of acetonitrile. The mixture was vortexed for 5 min and centrifuged at 10,000× g for 10 min. The supernatant was transferred to a vial for HPLC analysis after 1, 2, 4, 8, 12, and 24 h.
Turning to `C[C@H]1O[C@@H](n2cc(F)c(=O)n(Cc3ccccc3)c2=O)[C@H](O)[C@@H]1O` [Compound 4c], the “stability in PBS at different pH values and plasma (in words)” value is given as “similarly stable”.

For `C[C@H]1O[C@@H](n2cc(F)c(=O)n(Cc3cccs3)c2=O)[C@H](O)[C@@H]1O` [Compound 6c], the “stability in PBS at different pH values and plasma (in words)” value is recorded as “similarly stable”.

For `C[C@H]1O[C@@H](n2cc(F)c(=O)n(Cc3ccco3)c2=O)[C@H](O)[C@@H]1O` [Compound 5c], the “stability in PBS at different pH values and plasma (in words)” value is given as “similarly stable”.

Another data set addresses T1, NTR extracted from Escherichia coli (Escherichia coli, UniProt P38489).
T1 construct: host or cells: Escherichia coli
In words: In vitro release evaluation: incubation with NTR and NADH, HPLC of derivative and released 5′-DFUR. To be noted: NTR 50 µg/mL, NADH 2 mM, PBS pH 7.4, 37 °C, 12 h. It is filed as biochemical. As for the experimental part:
NTR levels are reportedly much higher in hypoxic tumors than in normal tissues. To investigate the mechanism of activation of the derivatives and the amount of 5′-DFUR released, we treated the target compounds with NTR extracted from Escherichia coli to determine whether they provided the desired active agent as expected. The test compounds (50 µM, 1% dimethyl sulfoxide [DMSO]) were dissolved in PBS buffer at pH 7.4 and incubated with NTR (50 µg/mL) and NADH (2 mM) at 37 °C, and the concentrations of the derivatives and 5′-DFUR during the bioreduction were detected by high-performance liquid chromatography (HPLC). The designed target compounds 1c–3c could be metabolized to form 5′-DFUR in the presence of NTR, while the nitro-free compounds 4c–6c could not be metabolized to form 5′-DFUR. […] The metabolic rate of compound 2c was the highest, with a half-life of 0.6 h. It was completely degraded after 4 h, and 69.6% of 5′-DFUR was released. […] During the experiment, other metabolites, such as hydroxylamine derivatives and amino derivatives generated by reducing the nitro group were also detected. […] Compounds 4c, 5c and 6c, without nitro groups, remained well-stabilized under NTR conditions, with concentrations > 90% after 12 h.
The target compounds NTR and NADH were dissolved in 10 mM PBS (pH 7.4; 1% DMSO). The final concentrations of the target compounds NTR and NADH in the mixtures were 50 μM, 50 μg/mL, and 2 mM, respectively. The mixture were incubated at 37 °C. The sample (100 μL) was collected and quenched by 100 µL of cold methanol. The mixture was vortexed for 5 min and centrifuged at 10,000× g for 10 min. The supernatant was transferred to a vial for HPLC analysis at 0.25, 0.5, 1, 2, 4, 8, and 12 h.
Turning to `C[C@H]1O[C@@H](n2cc(F)c(=O)n(Cc3ccccc3)c2=O)[C@H](O)[C@@H]1O` [Compound 4c], the “concentration remaining under NTR conditions after 12 h” value (“concentration remaining” for short) is given as more than 90%.

`C[C@H]1O[C@@H](n2cc(F)c(=O)n(Cc3cccs3)c2=O)[C@H](O)[C@@H]1O` [Compound 6c]: the “concentration remaining” value was more than 90%.

On to `C[C@H]1O[C@@H](n2cc(F)c(=O)n(Cc3ccco3)c2=O)[C@H](O)[C@@H]1O` [Compound 5c], for which the “concentration remaining” value is listed as more than 90%.

The subject of a further data set is MCF-7 human breast cancer cells. In words: In vitro cytotoxicity (MTT assay) in MCF-7 cells with or without NTR. It is filed as cell-based. To be noted: Homo sapiens, MCF7; MCF-7, 24 h, medium with NTR and NADH 2 mM, MTT; read-out: IC50 NTR. As for the experimental part:
(§1) The cytotoxicity of the target compounds 1c–6c were evaluated in MCF-7 human breast cancer cells and HT29 human colon cancer cells. These two cell lines were chosen because 5′-DFUR is currently used to treat breast and gastrointestinal tumors. The cells were incubated with the target compounds at various concentrations for 24 h in the presence or absence of NTR. The cell viability and proliferation behavior were assessed by 3-(4,5-dimethylthiazol-2-yl)-2,5-diphenyltetrazolium (MTT) assay. The half-maximal inhibitory concentration values of the tested compounds for inhibiting cell proliferation are shown in Table 1.
(§2) MCF-7 human breast cancer cells or HT29 human colon cancer cells purchased from the National Collection of Authenticated Cell Cultures were cultured in RPMI 1640 medium, and McCoy’s 5A medium supplemented with 10% fetal bovine serum and 1% penicillin-streptomycin in a humidified 5% CO2 incubator at 37 °C. Cells in the logarithmic growth phase were inoculated into 96-well plates at a density of 1.0 × 10^4 cells per well and cultured for 24 h. The target compounds were dissolved in DMSO and diluted in medium to different concentrations. The cells were then incubated with different concentrations of the target compound for 24 h. The cells in the NTR treatment group were incubated with various concentrations of compounds, NTR (final concentration, 50 µg/mL) and NADH (final concentration, 2 mM) for 24 h. Cell viability and proliferation were measured by MTT assay. Cell viability was calculated according to the following formula: cell viability (%) = (OD value of treatment group–OD value of blank group)/(OD value of control group–OD value of blank group) × 100. The half-maximal inhibitory concentration values were calculated from concentration-response curves using GraphPad PRISM (version 5.0, GraphPad, San Diego, CA, USA).
With `C[C@H]1O[C@@H](n2cc(F)c(=O)n(Cc3ccccc3)c2=O)[C@H](O)[C@@H]1O` [Compound 4c], the IC50 is 537 µM.

Regarding `C[C@H]1O[C@@H](n2cc(F)c(=O)n(Cc3cccs3)c2=O)[C@H](O)[C@@H]1O` [Compound 6c], the IC50 is 473 µM.

Regarding `C[C@H]1O[C@@H](n2cc(F)c(=O)n(Cc3ccco3)c2=O)[C@H](O)[C@@H]1O` [Compound 5c], the IC50 was 423 µM.

Still in this data set, the particulars now being: Homo sapiens, MCF7; MCF-7, 24 h, medium without NTR, MTT; read-out: IC50 NTR-Free.
In the case of `C[C@H]1O[C@@H](n2cc(F)c(=O)n(Cc3ccccc3)c2=O)[C@H](O)[C@@H]1O` [Compound 4c], the IC50 was determined as 495 µM.

In the case of `C[C@H]1O[C@@H](n2cc(F)c(=O)n(Cc3cccs3)c2=O)[C@H](O)[C@@H]1O` [Compound 6c], the IC50 was found to be 468 µM.

With `C[C@H]1O[C@@H](n2cc(F)c(=O)n(Cc3ccco3)c2=O)[C@H](O)[C@@H]1O` [Compound 5c], the IC50 was 412 µM.

The same data set, now with this note: MCF-7, selectivity ratio.
For the compound `C[C@H]1O[C@@H](n2cc(F)c(=O)n(Cc3ccccc3)c2=O)[C@H](O)[C@@H]1O` [Compound 4c], the “IC50 (NTR-Free)/ IC50 (NTR)” value came to 0.92.

In the case of `C[C@H]1O[C@@H](n2cc(F)c(=O)n(Cc3cccs3)c2=O)[C@H](O)[C@@H]1O` [Compound 6c], the “IC50 (NTR-Free)/ IC50 (NTR)” value came to 0.99.

As to `C[C@H]1O[C@@H](n2cc(F)c(=O)n(Cc3ccco3)c2=O)[C@H](O)[C@@H]1O` [Compound 5c], the “IC50 (NTR-Free)/ IC50 (NTR)” value is 0.97.

A further data set relates to HT29 human colon cancer cells. The experiment in a line: In vitro cytotoxicity (MTT assay) in HT29 cells with or without NTR. It is filed as cell-based. The conditions noted are these: HT29, selectivity ratio. As for the experimental part: as §1, §2
In general terms: Tetrazolium dyes change colour on reduction, which living cells bring about.
In the case of `C[C@H]1O[C@@H](n2cc(F)c(=O)n(Cc3ccccc3)c2=O)[C@H](O)[C@@H]1O` [Compound 4c], the “IC50 (NTR-Free)/ IC50 (NTR)” value amounted to 1.01.

For the compound `C[C@H]1O[C@@H](n2cc(F)c(=O)n(Cc3cccs3)c2=O)[C@H](O)[C@@H]1O` [Compound 6c], the “IC50 (NTR-Free)/ IC50 (NTR)” value is on record as 1.02.

As to `C[C@H]1O[C@@H](n2cc(F)c(=O)n(Cc3ccco3)c2=O)[C@H](O)[C@@H]1O` [Compound 5c], the “IC50 (NTR-Free)/ IC50 (NTR)” value was 1.09.

Still in this data set, the particulars now being: Homo sapiens, HT-29; HT29, 24 h, medium with NTR and NADH 2 mM, MTT; read-out: IC50 NTR.
On to `C[C@H]1O[C@@H](n2cc(F)c(=O)n(Cc3ccccc3)c2=O)[C@H](O)[C@@H]1O` [Compound 4c], for which the IC50 was determined as 614 µM.

Take `C[C@H]1O[C@@H](n2cc(F)c(=O)n(Cc3cccs3)c2=O)[C@H](O)[C@@H]1O` [Compound 6c]: the IC50 is 465 µM.

Consider `C[C@H]1O[C@@H](n2cc(F)c(=O)n(Cc3ccco3)c2=O)[C@H](O)[C@@H]1O` [Compound 5c], for which the IC50 worked out at 422 µM.

The data set is the same for the next values; noted with them: Homo sapiens, HT-29; HT29, 24 h, medium without NTR, MTT; read-out: IC50 NTR-Free.
On to `C[C@H]1O[C@@H](n2cc(F)c(=O)n(Cc3ccccc3)c2=O)[C@H](O)[C@@H]1O` [Compound 4c], for which the IC50 is 621 µM.

Consider `C[C@H]1O[C@@H](n2cc(F)c(=O)n(Cc3cccs3)c2=O)[C@H](O)[C@@H]1O` [Compound 6c], for which the IC50 stood at 474 µM.

Turning to `C[C@H]1O[C@@H](n2cc(F)c(=O)n(Cc3ccco3)c2=O)[C@H](O)[C@@H]1O` [Compound 5c], the IC50 is 459 µM.

What is called IC50 is the concentration that gives 50% inhibition.
